Patent US20230321108A1, “UNIT DOSAGE COMPOSITION OF AKT INHIBITOR” (NANJING CHIA TAI TIANQING PHARMACEUTICAL CO., LTD., priority 2020, published 2023)

Legend:
AKT3 = AKT3 (Homo sapiens (Human), UniProt Q9Y243); test: AKT kinase activity assay (HTRF kinEASE TK), AKT3; assay type: biochemical; settings: 10 nM ATP, read-out: AKT3 enzyme activity IC50
Protocol: The substrate and ATP were respectively diluted with the 1× kinase reaction buffer to a concentration 5 times the reaction concentration.
A 5× enzyme working solution was prepared from the 1× kinase reaction buffer.
A 4× streptavidin-XL665 working solution was prepared from the assay buffer.
4× europium-labeled tyrosine kinase substrate antibody working solution The europium-labeled tyrosine kinase substrate antibody was 100-fold diluted with the assay reaction buffer to obtain a working solution.
After all the reagents were prepared according to the above method, except for the enzyme, the reagents were equilibrated to the room temperature and loaded.
b) 2 µL of previously prepared TK-biotin substrate solution (the concentration of the substrate for enzyme screening is shown in Table 1) was placed in each reaction well.
The plate was sealed with a sealing film, and the reaction solution was mixed until uniform and incubated at the room temperature for 10 min to allow the compound to fully react with and bind to the enzyme.
d) 2 µL of ATP solution was placed in each reaction well to initiate a kinase reaction (the concentration of ATP for enzyme screening and reaction time are shown in Table 1).
e) 5 min before the kinase reaction was completed, an assay solution was prepared.
f) After the kinase reaction was completed, 5 µL of diluted streptavidin-XL665 was placed in each reaction well and mixed with the reaction solution until uniform, and the diluted europium-labeled tyrosine kinase substrate antibody assay solution was immediately added.

AKT1 = AKT1 (Homo sapiens (Human), UniProt P31749); test: AKT kinase activity assay (HTRF kinEASE TK), AKT1; assay type: biochemical; settings: 2 µM ATP, read-out: AKT1 enzyme activity IC50
Chain of AKT1 (P31749 whole entry): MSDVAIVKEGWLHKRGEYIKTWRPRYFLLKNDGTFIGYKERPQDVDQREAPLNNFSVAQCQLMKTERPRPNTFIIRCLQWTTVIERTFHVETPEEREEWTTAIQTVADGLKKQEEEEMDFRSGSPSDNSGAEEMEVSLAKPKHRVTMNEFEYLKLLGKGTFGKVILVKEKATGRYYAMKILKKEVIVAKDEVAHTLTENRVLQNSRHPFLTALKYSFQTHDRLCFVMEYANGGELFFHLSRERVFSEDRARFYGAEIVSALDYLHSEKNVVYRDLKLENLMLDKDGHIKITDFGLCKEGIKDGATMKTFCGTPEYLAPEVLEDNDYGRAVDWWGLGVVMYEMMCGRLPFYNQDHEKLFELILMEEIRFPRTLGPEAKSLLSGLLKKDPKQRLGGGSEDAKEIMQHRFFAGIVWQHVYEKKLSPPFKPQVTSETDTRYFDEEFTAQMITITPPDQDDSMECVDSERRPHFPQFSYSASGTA

[1] = system: LnCap human prostate cancer; test: Subcutaneous transplantation model of LnCap human prostate cancer; assay type: in vivo, NCG mice; settings: for T/C / TGI / TV on the day of the end of the experiment: 18 days; for TV on the day of the end of the experiment / TV on the day of grouping and administration: mean ± SEM; for TV on the day of grouping and administration: baseline
Text: NCG mice, male, 8-10-week-old (when tumor cells were inoculated into the mice). […] LnCap cells in exponential growth phase were harvested and resuspended in PBS to a concentration suitable for subcutaneous tumor inoculation into mice. […] A formula for calculating a tumor volume: long diameter × short diameter^2 / 2. [table] […] Solvent: the solvent was a mixed solvent of PG, PEG400, and water, PG: PEG400: water=(20-40): (20-30): (30-50) (v: v: v). Any ratio within the range can be used. [table] All experimental results are shown as mean tumor volume ± SEM (standard error of mean). Whether there is a significant difference between the treatment group and the control group in terms of tumor volume was determined by the independent samples T test. All data were analyzed by using SPSS 18.0.

Chain of AKT3 (Q9Y243 whole entry): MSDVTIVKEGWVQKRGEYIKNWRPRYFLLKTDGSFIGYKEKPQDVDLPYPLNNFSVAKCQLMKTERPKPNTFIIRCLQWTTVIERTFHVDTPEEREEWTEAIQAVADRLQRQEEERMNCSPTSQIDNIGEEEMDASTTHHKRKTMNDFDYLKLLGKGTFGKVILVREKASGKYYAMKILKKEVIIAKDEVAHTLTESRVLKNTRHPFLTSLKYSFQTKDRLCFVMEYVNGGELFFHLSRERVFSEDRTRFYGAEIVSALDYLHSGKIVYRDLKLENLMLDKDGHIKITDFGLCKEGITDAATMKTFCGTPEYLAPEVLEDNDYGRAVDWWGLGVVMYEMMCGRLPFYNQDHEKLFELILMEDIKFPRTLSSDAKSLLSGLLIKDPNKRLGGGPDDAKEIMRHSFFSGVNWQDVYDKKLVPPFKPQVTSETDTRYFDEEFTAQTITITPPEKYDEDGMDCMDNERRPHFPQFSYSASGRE

Row | IC50 (AKT3) | IC50 (AKT1) | SMILES | T/C ([1]; 50 mg/kg QD po) | TGI ([1]; 50 mg/kg QD po) | TV on the day of the end of the experiment ([1]; 50 mg/kg QD po) | TV on the day of grouping and administration ([1]; 50 mg/kg QD po) | further results
1 | 13 nM |  | C[C@@H]1CC(=O)Nc2ncnc(N3CCN(C(=O)[C@H](CNC4CC4)c4ccc(Cl)cc4)[C@H]4C[C@H]43)c21 (single isomer, unassigned) [Isomer 1 of Example 1] |  |  |  |  | 
2 | 89 nM | 613 nM | CC(C)NC[C@@H](C(=O)N1CCN(c2ncnc3c2[C@H](C)OC(=O)N3)[C@H]2C[C@H]21)c1ccc(Cl)cc1 (single isomer, unassigned) [Isomer 2 of Example 3] |  |  |  |  | 
3 | 0.12 nM | 0.6 nM | CC(C)NC[C@@H](C(=O)N1CCN(c2ncnc3c2[C@H](C)OC(=O)N3)[C@H]2C[C@H]21)c1ccc(Cl)cc1 (single isomer, unassigned; isomer 4) [Isomer 4 of Example 3] | 10.29% | 89.71% | 99.30±40.55 mm^3 | 177.90±10.06 mm^3 | tumor inhibiting effect in the in vivo experiment ([1]; result in words): obvious tumor inhibiting effect
4 |  |  | CC(C)NC[C@@H](C(=O)N1CCN(c2ncnc3c2[C@H](C)CC(=O)N3)[C@H]2C[C@H]21)c1ccc(Cl)cc1 [Isomer 2 of Example 1, (R)-4-((1S,6R)-5-((S)-2-(4-chlorophenyl)-3-(isopropylamino)propionyl)-2,5-diazabicyclo[4.1.0]heptan-2-yl)-5-methyl-5,8-dihydropyrido[2,3-d]pyrimidin-7(6H)-one] | 4.52% | 95.48% | 43.64±16.62 mm^3 | 177.78±6.64 mm^3 | T/C ([1]; 12.5 mg/kg QD po): 41.57%; TGI ([1]; 12.5 mg/kg QD po): 58.43%; TV on the day of the end of the experiment ([1]; 12.5 mg/kg QD po): 401.07±80.17 mm^3; TV on the day of grouping and administration ([1]; 12.5 mg/kg QD po): 177.76±6.67 mm^3; T/C ([1]; 25 mg/kg QD po): 15.90%; TGI ([1]; 25 mg/kg QD po): 84.10%; TV on the day of the end of the experiment ([1]; 25 mg/kg QD po): 153.42±23.11 mm^3; TV on the day of grouping and administration ([1]; 25 mg/kg QD po): 177.80±6.71 mm^3
5 |  |  | C[C@@H]1CC(=O)Nc2ncnc(N3CCN(C(=O)[C@H](CNC4CC4)c4ccc(Cl)cc4)[C@@H]4C[C@@H]43)c21 [Isomer 2 of Example 2, (R)-4-((1S,6R)-5-((S)-2-(4-chlorophenyl)-3(cyclopropylamino)propionyl)-2,5-diazabicyclo[4.1.0]heptan-2-yl)-5-methyl-5,8-dihydropyrido[2,3-d]pyrimidin-7(6H)-one] | 19.44% | 80.56% | 187.49±22.88 mm^3 |  | 
